Assay results published in patent EP4660184A1 (Eurofarma Laboratórios S.A., priority 2023, dated 2024).

Columns and labels:
[1] = molecular target: T1, human sodium channels Nav 1.8 (Homo sapiens, UniProt Q9Y5Y9); test: Automated whole-cell voltage-clamp (ScreenPatch 384P) sodium current block, Nav 1.8; assay type: cell-based; details: CHO cells stably expressing human Nav 1.8; inactivation step -40 mV for 8 seconds, test step 10 mV (TP1A); exposure at least five minutes; room temperature; mean if two or more assays; read-out: Nav1.8 IC50
T1 construct: expressed in transfected cells
T1 sequence (Q9Y5Y9 whole entry): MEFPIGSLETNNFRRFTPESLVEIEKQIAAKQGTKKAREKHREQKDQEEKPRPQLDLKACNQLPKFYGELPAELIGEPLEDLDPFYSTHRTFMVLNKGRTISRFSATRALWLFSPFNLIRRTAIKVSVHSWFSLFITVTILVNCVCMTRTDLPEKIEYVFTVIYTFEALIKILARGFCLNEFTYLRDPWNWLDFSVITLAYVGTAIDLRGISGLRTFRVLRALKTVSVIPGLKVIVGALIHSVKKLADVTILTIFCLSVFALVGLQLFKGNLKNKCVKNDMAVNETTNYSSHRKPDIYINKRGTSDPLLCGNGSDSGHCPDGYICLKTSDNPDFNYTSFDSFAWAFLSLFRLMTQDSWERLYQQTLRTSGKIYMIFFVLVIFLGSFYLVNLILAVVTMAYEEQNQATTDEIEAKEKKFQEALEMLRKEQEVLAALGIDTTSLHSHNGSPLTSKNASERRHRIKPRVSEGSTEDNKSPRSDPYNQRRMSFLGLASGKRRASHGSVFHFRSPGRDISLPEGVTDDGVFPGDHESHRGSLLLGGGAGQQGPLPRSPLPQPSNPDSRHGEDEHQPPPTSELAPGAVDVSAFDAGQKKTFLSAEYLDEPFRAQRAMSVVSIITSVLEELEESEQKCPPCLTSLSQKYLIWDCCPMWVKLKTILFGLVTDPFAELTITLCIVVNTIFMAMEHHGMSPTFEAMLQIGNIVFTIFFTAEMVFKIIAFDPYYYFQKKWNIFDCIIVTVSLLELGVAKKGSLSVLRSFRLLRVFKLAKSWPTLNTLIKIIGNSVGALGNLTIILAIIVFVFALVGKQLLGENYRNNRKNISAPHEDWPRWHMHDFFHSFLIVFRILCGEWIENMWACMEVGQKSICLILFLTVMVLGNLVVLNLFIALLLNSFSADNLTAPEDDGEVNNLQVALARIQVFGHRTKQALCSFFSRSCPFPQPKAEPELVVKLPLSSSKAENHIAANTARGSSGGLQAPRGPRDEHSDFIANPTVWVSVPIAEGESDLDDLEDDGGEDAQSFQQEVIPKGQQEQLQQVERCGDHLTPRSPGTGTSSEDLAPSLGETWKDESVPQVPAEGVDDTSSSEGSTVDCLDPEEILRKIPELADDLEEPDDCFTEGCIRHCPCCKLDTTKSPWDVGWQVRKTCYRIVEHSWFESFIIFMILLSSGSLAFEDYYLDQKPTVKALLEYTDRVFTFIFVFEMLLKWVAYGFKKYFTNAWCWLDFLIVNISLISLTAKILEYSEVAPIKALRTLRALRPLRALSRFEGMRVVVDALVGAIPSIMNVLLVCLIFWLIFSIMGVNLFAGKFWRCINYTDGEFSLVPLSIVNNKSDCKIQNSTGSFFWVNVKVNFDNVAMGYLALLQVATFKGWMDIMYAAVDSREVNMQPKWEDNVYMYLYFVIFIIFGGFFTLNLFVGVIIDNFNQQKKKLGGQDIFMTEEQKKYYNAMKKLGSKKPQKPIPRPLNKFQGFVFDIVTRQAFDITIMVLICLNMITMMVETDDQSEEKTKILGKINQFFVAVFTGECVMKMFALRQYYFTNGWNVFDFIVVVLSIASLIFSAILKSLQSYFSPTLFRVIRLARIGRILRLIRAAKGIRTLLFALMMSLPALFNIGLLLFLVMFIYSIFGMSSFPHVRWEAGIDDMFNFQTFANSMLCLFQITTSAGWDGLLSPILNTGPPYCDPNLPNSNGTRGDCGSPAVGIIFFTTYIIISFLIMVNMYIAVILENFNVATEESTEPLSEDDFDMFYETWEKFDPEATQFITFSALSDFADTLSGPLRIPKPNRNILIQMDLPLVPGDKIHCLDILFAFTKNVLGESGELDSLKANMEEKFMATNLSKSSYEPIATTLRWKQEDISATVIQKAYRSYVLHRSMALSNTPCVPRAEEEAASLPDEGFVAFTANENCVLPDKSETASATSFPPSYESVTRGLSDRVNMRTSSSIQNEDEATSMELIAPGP
Description: (§1) Biological assays were performed on Chinese hamster ovary (CHO) cells that express human sodium channels Nav 1.8 or Nav 1.7 in a stable manner.
(§2) The experimental protocol voltage-clamp using the whole cell configuration was established on the automated ScreenPatch® 384P platform (SP384PE, Nanion Technologies, Livingston, NJ) and the results were recorded with a Nanion 384-well Patch Clamp chip (NPC) (Nanion Technologies, Livingston, NJ).
(§3) Formula I compounds were diluted in eight concentrations in the extracellular solution composed of saline saline solution, buffered with HEPES (mM): NaCl, 137; KCl, 4; CaCl2, 3,8; MgCl2, 1; HEPES, 10; Glucose, 10; pH 7.4. The […], 50; CsF, 90; MgCl2, 5; EGTA, 5; HEPES, 10; pH 7.2. The duration of exposure of each compound with cells expressing Nav 1.7 or Nav 1.8 was at least five minutes and the assays were performed at room temperature.
(§4) The measurements of the sodium currents of Nav 1.8 and Nav 1.7 were obtained using the voltage protocol described below.
(§5) A holding voltage of -100 mV was established followed by an inactivation voltage step at -40 mV for 8 seconds, followed by a step of -100 mV for 20 ms, followed by a 20 ms step for 10 mV for Nav 1.8 or 0 mV for Nav 1.7 (TP1A) before returning to the holding voltage of -100 mV.
(§6) The protocol was repeated at a frequency of 0.05 Hz and the amplitude of the current was quantified throughout the recording of the TP1A phase. The variation in the amplitude of the peak current was evaluated according to the formula described below, after exposing the cells expressing the channels to each concentration of the different compounds: % Block = (1−(ITP1A,molecule/ITP1A,basal)×100%, [formula] wherein ITP1A,basal and ITP1A,molecule represent the peaks of sodium current input into TP1A before exposure to the compound and in the presence of the compound, respectively.
(§7) Data were obtained by nonlinear regression (nonlinear least squares) with XLfit for Excel (Microsoft, Redmond, WA).
(§8) The compounds were tested in at least one assay to obtain the value of CI50. For compounds that were tested in two or more assays, the results are described as the mean of the CI50 values.

[2] = molecular target: T2, human sodium channels Nav 1.7 (Homo sapiens, UniProt Q15858); test: Automated whole-cell voltage-clamp (ScreenPatch 384P) sodium current block, Nav 1.7; assay type: cell-based; details: CHO cells stably expressing human Nav 1.7; inactivation step -40 mV for 8 seconds, test step 0 mV (TP1A); exposure at least five minutes; room temperature; mean if two or more assays; read-out: Nav1.7 IC50
T2 construct: expressed in transfected cells
T2 sequence (Q15858 whole entry): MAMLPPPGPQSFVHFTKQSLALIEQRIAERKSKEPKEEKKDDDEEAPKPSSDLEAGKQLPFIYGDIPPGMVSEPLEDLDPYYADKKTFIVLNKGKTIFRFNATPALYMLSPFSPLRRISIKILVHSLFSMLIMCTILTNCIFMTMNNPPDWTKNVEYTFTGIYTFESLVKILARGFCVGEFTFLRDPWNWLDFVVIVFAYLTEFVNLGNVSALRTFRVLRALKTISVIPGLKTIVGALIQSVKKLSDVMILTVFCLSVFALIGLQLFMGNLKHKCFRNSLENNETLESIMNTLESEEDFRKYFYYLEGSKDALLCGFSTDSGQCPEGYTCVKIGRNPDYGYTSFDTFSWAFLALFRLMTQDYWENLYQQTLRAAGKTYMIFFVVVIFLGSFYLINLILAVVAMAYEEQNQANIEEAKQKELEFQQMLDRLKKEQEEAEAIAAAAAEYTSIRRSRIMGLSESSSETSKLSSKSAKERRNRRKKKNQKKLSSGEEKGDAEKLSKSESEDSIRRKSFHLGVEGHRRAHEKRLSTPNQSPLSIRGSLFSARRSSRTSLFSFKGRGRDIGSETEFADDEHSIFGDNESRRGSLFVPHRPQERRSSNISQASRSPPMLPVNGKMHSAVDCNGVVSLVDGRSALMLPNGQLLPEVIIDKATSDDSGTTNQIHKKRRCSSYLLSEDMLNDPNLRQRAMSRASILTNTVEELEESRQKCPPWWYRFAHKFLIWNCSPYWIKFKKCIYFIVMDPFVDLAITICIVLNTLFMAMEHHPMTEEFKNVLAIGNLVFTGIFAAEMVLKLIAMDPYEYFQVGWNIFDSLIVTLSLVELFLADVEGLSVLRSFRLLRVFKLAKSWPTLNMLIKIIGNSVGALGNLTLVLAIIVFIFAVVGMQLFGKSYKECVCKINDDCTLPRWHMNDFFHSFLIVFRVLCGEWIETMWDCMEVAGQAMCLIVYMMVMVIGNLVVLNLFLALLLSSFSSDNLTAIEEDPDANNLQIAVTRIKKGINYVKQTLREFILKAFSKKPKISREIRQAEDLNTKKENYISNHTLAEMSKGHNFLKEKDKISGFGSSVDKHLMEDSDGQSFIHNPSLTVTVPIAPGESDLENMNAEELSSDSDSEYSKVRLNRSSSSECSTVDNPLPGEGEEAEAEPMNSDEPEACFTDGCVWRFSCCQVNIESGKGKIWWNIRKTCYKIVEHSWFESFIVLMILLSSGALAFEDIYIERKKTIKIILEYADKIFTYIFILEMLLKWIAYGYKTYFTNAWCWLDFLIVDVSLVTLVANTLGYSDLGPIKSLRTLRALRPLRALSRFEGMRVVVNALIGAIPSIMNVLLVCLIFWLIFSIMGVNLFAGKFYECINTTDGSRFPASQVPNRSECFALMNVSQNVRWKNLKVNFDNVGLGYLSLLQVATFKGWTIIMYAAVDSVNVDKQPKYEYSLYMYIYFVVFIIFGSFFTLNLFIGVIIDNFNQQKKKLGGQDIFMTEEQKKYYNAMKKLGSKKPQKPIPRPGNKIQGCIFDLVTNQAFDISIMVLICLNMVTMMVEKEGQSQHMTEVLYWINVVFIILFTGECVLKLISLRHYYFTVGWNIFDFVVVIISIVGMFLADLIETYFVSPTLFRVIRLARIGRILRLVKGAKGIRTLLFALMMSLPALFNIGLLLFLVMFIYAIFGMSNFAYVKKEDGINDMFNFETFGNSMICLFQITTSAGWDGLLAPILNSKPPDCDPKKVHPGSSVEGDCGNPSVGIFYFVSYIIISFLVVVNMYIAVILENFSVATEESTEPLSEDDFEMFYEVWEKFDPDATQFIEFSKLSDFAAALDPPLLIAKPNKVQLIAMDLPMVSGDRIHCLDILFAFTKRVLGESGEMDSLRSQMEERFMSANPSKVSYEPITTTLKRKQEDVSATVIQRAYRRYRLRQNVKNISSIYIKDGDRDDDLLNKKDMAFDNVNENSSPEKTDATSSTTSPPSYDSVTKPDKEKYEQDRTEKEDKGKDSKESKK
Description: as §1, §2, §3, §4, §5, §6, §7, §8

Row | SMILES | IC50 [1] | IC50 [2]
1 | CCOc1ccc(-c2cncc(C(=O)NOCc3cc(OC)ccc3C)n2)cn1 [Compound 47, 6-(6-ethoxypyridine-3-yl)-N-((5-methoxy-2-methylbenzyl)oxy)pyrazine-2-carboxamide] | > 1000 nM | > 1000 nM
2 | [2H]C([2H])([2H])C([2H])([2H])Oc1ccc(-c2cncc(C(=O)NOCc3cc(OC)ccc3F)n2)cn1 [Compound 48, 6-(6-(ethoxy-d5)pyridine-3-yl)-N-((2-fluoro-5-methoxybenzyl)oxy)pyrazine-2-carboxamide] | > 1000 nM | > 1000 nM
3 | [2H]C([2H])([2H])COc1ccc(-c2cncc(C(=O)NOCc3cc(OC)ccc3F)n2)cn1 [Compound 49, 6-(6-(ethoxy-2,2,2-d3)pyridine-3-yl)-N-((2-fluoro-5-methoxybenzyl)oxy)pyrazine-2-carboxamide] | > 1000 nM | > 1000 nM
4 | [2H]C([2H])(C)Oc1ccc(-c2cncc(C(=O)NOCc3cc(OC)ccc3F)n2)cn1 [Compound 50, 6-(6-(ethoxy-1,1-d2)pyridine-3-yl)-N-((2-fluoro-5-methoxybenzyl)oxy)pyrazine-2-carboxamide] | > 1000 nM | > 1000 nM
5 | [2H]C([2H])([2H])COc1ccc(-c2cncc(C(=O)NOCc3cc(OC([2H])([2H])[2H])ccc3F)n2)cn1 [Compound 52, 6-(6-(ethoxy-2,2,2-d3)pyridine-3-yl)-N-((2-fluoro-5-(methoxy-d3)benzyl)oxy)pyrazine-2-carboxamide] | > 1000 nM | > 1000 nM
6 | [2H]C([2H])([2H])Oc1ccc(F)c(CONC(=O)c2cncc(-c3ccc(OC([2H])([2H])C([2H])([2H])[2H])nc3)n2)c1 [Compound 53, 6-(6-(ethoxy-d5)pyridine-3-yl)-N-((2-fluoro-5-(methoxy-d3)benzyl)oxy)pyrazine-2-carboxamide] | > 1000 nM | > 1000 nM
7 | [2H]C([2H])([2H])Oc1ccc(F)c(C([2H])([2H])ONC(=O)c2cncc(-c3ccc(OC([2H])([2H])C([2H])([2H])[2H])nc3)n2)c1 [Compound 54, 6-(6-(ethoxy-d5)pyridine-3-yl)-N-((2-fluoro-5-(methoxy-d3)phenyl)methoxy-d2)pyrazine-2-carboxamide] | > 1000 nM | > 1000 nM
8 | [2H]C([2H])([2H])Oc1ccc(F)c(CONC(=O)c2cncc(-c3ccc(OCC)nc3)n2)c1 [Compound 55, 6-(6-ethoxypyridine-3-yl)-N-((2-fluoro-5-(methoxy-d3)benzyl)oxy)pyrazine-2-carboxamide] | < 500 nM | 500 to 1000 nM
9 | CCOc1ccc(-c2cncc(C(=O)NOCc3cncn3C)n2)cn1 [Compound 56] | < 500 nM | 500 to 1000 nM
10 | CCOc1ccc(-c2cncc(C(=O)NOCc3ncoc3C)n2)cn1 [Compound 57, 6-(6-ethoxypyridine-3-yl)-N-((5-methyloxazole-4-yl)methoxy)pyrazine-2-carboxamide] | > 1000 nM | > 1000 nM
11 | CCOc1ccc(-c2cncc(C(=O)NOCc3ccnn3C)n2)cn1 [Compound 58] | > 1000 nM | > 1000 nM
12 | CCOc1ccc(-c2cncc(C(=O)NOCc3[nH]cnc3C)n2)cn1 [Compound 59, 6-(6-ethoxypyridine-3-yl)-N-((4-methyl-1H-imidazole-5-yl)methoxy)pyrazine-2-carboxamide] | > 1000 nM | > 1000 nM
13 | CCOc1ccc(-c2cncc(C(=O)NOCc3cccn3C)n2)cn1 [Compound 60, 6-(6-ethoxypyridine-3-yl)-N-((1-methyl-1H-pyrrole-2-yl)methoxy)pyrazine-2-carboxamide] | < 500 nM | 500 to 1000 nM
14 | CCOc1ccc(-c2cncc(C(=O)NOCc3nccn3CC)n2)cn1 [Compound 61, 6-(6-ethoxypyridine-3-yl)-N-((1-ethyl-1H-imidazole-2-yl)methoxy)pyrazine-2-carboxamide] | < 500 nM | > 1000 nM
15 | CCOc1ccc(-c2cncc(C(=O)NOCc3ccnn3CC)n2)cn1 [Compound 62, 6-(6-ethoxypyridine-3-yl)-N-((1-ethyl-1H-pyrazole-5-yl)methoxy)pyrazine-2-carboxamide] | > 1000 nM | > 1000 nM
